Ends that are not written are not given here.
What was measured:
[1] = target: T1, HLA A*02:01 class I molecules (Homo sapiens, UniProt P04439, D140Y/D185E/D98H/E176V/E277Q/G131W/G231S/I119V/I121R/I166T/I218V/L300P/L318F/N151K/N90K/P208A/P217A/Q86G/Q94H/R138H/R169H/T345S); assay: MHC-peptide binding assay, inhibition of binding of radiolabeled standard peptide; details: inhibition of binding of radiolabeled HBV core 18–27 analogue […]; purified MHC from JY cells; six concentrations, three or more independent assays; read-out: Measured affinity IC50
T1 construct: endogenous in cells; host or cells: JY (EBV-transformed homozygous B cell line)
From the text: Quantitative assays to measure the binding of peptides to HLA A*02:01 class I molecules are based on the inhibition of binding of a radiolabeled standard peptide (HBV core 18–27 analogue, […]). MHC molecules were purified by affinity chromatography from the EBV transformed homozygous cell line JY, and assays performed, as described previously. […] Under the conditions used, where [radiolabeled probe] < [MHC] and IC50 ≥ [MHC], the measured IC50 values are reasonable approximations of the true Kd values.

[2] = test system: PBMCs from HLA-A*0201+ volunteers; assay: Ex vivo IFN-γ ELISpot assay; type: cell-based, human; details: individual peptides at 10 µg/ml; 20 h, 37°C
From the text: We recruited 21 HLA-A*0201 positive volunteers with a history of primary VZV infection, detectable VZV IgG but no previous VZV vaccination or clinical evidence of recent reactivation (Table 1). The median age was 63 years (range 25–77 years). Epitope predictions in the context of HLA-A*0201 were made using the Immune Epitope Database consensus prediction tool with the complete published VZV sequences (Table S1). The top 0.5% of 9- and 10-mers (367 peptides) were synthesized and peptide pools screened by IFN-γ ELISpot using PBMCs from each subject. In 15/21 subjects, the same peptide pool induced positive responses (Figure 1a). […] Tetramer+ cells were detected in 12/21 subjects with frequencies ranging from 0.01% to 1.8% of CD8 T cells (Figure 1d). ILI was thus identified as an immunodominant HLA-A*0201-restricted class I epitope.
Gamma interferon (IFN-γ) enzyme-linked immunospot (ELISpot) assays were performed using 2×10^5 PBMC stimulated with peptide pools (10 µg/ml/peptide). Peptide pools yielding positive responses were deconvoluted, by testing individual peptides at 10 µg/ml. After 20 h of incubation at 37°C, plates were developed, and responses were calculated. Positive wells contained ≥20 spot-forming units (SFU)/10^6 cells and a P value of ≤0.05 using a Student's t test in at least 2 experiments.

Row | Sequence | IC50 [1] [nM] | IFN-γ production (individual peptides) [2]
1 | ILIEGIFFV | 0.03 | 
2 | ILIEGIFFA | 0.15 | 
3 | ILIEGVFFA | 0.16 | 
4 | LLIEGIFFI | 0.12 | 
5 | MILIEGIFFV [10-mer candidate peptide from ribonucleotide reductase subunit 2 (RNR2) of VZV] |  | strongly induced IFN-γ production
